In PMC9728921, “Characterization of a KDM5 small molecule inhibitor with antiviral activity against hepatitis B virus” (PLOS ONE, 2022):

Assays:
[1] = target: T1, KDM4B (Homo sapiens, UniProt O94953); experiment: KDM4B enzymatic assay (AlphaLISA); format: biochemical
T1 sequence (O94953 1-1096): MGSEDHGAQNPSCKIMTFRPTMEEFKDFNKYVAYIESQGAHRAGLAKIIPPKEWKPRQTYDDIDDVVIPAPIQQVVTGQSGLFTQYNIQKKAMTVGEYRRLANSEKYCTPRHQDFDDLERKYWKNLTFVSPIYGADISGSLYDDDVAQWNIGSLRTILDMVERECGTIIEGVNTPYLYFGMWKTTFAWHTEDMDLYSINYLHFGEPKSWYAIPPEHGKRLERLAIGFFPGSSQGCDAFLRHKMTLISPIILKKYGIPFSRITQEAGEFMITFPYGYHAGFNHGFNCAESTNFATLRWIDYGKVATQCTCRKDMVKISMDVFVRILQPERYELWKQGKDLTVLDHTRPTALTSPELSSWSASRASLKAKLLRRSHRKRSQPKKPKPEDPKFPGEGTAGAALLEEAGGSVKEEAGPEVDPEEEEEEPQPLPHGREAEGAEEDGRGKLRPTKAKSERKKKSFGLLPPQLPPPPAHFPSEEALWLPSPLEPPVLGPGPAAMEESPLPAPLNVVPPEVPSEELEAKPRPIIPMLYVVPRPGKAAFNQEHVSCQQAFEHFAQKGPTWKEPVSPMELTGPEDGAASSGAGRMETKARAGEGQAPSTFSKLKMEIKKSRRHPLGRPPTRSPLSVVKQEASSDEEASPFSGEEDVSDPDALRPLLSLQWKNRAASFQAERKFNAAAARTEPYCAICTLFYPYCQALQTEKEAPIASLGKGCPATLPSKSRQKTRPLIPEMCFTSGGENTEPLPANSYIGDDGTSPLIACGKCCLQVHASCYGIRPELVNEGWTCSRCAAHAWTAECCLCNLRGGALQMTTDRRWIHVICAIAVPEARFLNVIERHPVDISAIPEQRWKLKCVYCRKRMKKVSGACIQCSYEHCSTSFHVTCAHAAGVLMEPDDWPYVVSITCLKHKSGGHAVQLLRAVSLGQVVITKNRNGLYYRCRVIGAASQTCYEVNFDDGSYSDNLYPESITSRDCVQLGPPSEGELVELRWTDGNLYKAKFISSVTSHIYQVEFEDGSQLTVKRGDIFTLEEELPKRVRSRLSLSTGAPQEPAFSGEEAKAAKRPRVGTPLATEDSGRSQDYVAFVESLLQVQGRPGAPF
Description: The following assay protocol was used for all histone demethylases tested except KDM1A, KDM5A, B, and D, which are described below. Compounds were serially diluted into a 384-well Alpha plate as a DMSO solution and mixed with 5 μL reaction buffer (buffer A) containing 50 mM HEPES (pH 7.0), 0.1% BSA, and 0.003% Tween-20. The enzyme of interest was pre-incubated with 15 μM of Fe^2+ for 10 min (except 30 min for KDM2B) in reaction buffer A. 5 μL of the enzyme mixture was added to each of the compound-containing wells and incubated for 10 min. The reaction was started by addition of a 5 μL mixture containing 300 nM peptide substrate, 75 μM L-ascorbic acid, and 30 μM α-ketoglutarate in buffer A. This final 15 μL of reaction mixture was incubated for 20 min for KDM5B and 1 hour for the other KDM enzymes. The reaction was quenched with 10 μL of diluted AlphaLISA Acceptor beads (1:400) in Epigenetics Buffer and incubated for 60 min. The Donor beads were diluted 1:400 into Epigenetics Buffer in the dark and 10 μL of this was added to each well and incubated for another 60 min in the dark. The assay plates were read on an Enspire plate reader (PerkinElmer) using a standard AlphaLISA program.
(§1) Data was analyzed using GraphPad Prism 6.0 (La Jolla, CA). […] IC50 values were calculated as an average of at least two independent experiments.

[2] = target: KDM1A (Homo sapiens, UniProt O60341); experiment: KDM1A enzymatic assay (AlphaLISA, NAD); format: biochemical
Description: The KDM1 assay was conducted in the presence of NAD but without Fe(II) or ascorbic acid. A 10 μL reaction mixture containing 50 mM Tris-HCl (pH 9.0), 50 mM NaCl, 0.01% Tween-20, 0.25 nM of enzyme, and 1 mM NAD was pre-incubated for 10 min. The reaction was started by addition of 5 μL of H3(1–21)K4 me1, and the reaction mixture was incubated for 60 min. The reaction was quenched with 10 μL AlphaLISA Acceptor beads (1:200) in Epigenetics Buffer and the reaction mixture was incubated for 60 min. The Donor beads were diluted 1:200 into Epigenetics Buffer in the dark, and 10 μL of this mixture was added to each well and incubated for another 60 min in the dark. The assay plates were read on an Enspire plate reader (PerkinElmer) using a standard AlphaLISA program.
as §1

[3] = test system: host and viral transcriptomes in PHH; experiment: RNA-seq of HBV-infected PHH; format: cell-based, human; settings: 0.03, 0.3, or 10 μM; days 1, 3, 10, 13
Description: (D) Hallmark Gene Set. […] For comparison, downregulation of HBV mRNA for same dose and time regiment is shown at the top.
Library building and sequencing for RNA-seq of PHH and rat liver was performed on all samples at EA Genomics/Q2 Solutions (Morrisville, NC). Approximately 100 mg of rat liver tissue from the left later lobe was flash frozen immediately after collection. PHH were lysed into RLT buffer (Qiagen; 79216) and immediately frozen. Liver/PHH samples were homogenized in QIAzol Lysis Reagent (79306) and after addition of chloroform the samples were separated into aqueous and organic phases by centrifugation. Ethanol was added to the upper aqueous phase and the sample was applied to an RNeasy Mini spin column (74104) for purification and RNA eluted with water. Libraries were prepared using the Illumina TruSeq stranded mRNA sample preparation kit according to the manufacturer’s protocol (Illumina, Inc., Hayward, CA; RS-122-2103). Approximately 30 million 2 x 50 bp paired-end reads were collected per sample using the Illumina HiSeq2000 sequencing platform. Sequencing reads were aligned to the human, rat, or HBV genomes by STAR [49]. The Bioconductor packages edgeR [50] and limma were used to normalize sequence count data (counts per million; cpm) and conduct differential gene expression analysis. The false discovery rate (FDR) was calculated using the Benjamini-Hochberg method.

Compound | Fold Selectivity Compared to KDM5A ([1]; IC50 of KDM4B over KDM5A) [fold] | IC50 ([1]; enzyme concentration 1 nM) [nM] | Fold Selectivity Compared to KDM5A ([2]; IC50 of KDM1A over KDM5A) | IC50 ([2]; enzyme concentration 0.25 nM) [nM] | levels of HBV mRNA as measured by RNA-seq [3]
CCN(CCN(C)C)C(=O)CNCc1cc(C(=O)O)ccn1 [GS-080] | 13 | 4.7 | > 278,000 fold | > 100000 | 
CCOC(=O)c1ccnc(CNCC(=O)N(CC)CCN(C)C)c1 [GS-5801] |  |  |  |  | decreased after GS-5801 treatment in a dose and time dependent manner
